Assay [1] concerns MV-4-11 cell. Briefly: Cell proliferation assay (Cell Titer-Glo). The assay is classed as cell-based. To be noted: Homo sapiens, MV4-11, 96 h, inhibition of MV-4-11 cell proliferation; Cell Titer-Glo on day 4. The procedure, abridged:
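MV-4-11 cells were seeded in IMDM with 10% FBS, cultured 24 h, then given the compounds at a range of concentrations (0.1% DMSO final). On day 4, viability was read by Cell Titer-Glo luminescence after 15 min mixing at 25 °C.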

In assay [2] the target is T1, hERG potassium channel (Homo sapiens, UniProt Q12809).
T1 construct: expressed in transfected cells; host or cells: CHO (Chinese hamster ovary) cells stably expressing hERG
The assay is described as follows: Inhibition of hERG potassium channel current, manual patch clamp in CHO cells stably expressing hERG. The assay is classed as cell-based. The note with it: whole-cell patch clamp, room temperature. Here is the method: The electrophysiological manual patch clamp method was used to test the effect of the compounds on the current of hERG potassium channel (human Ether-a-go-go Related Gene potassium channel).
CHO cells stably expressing hERG were cultured in a cell Petri dish having a diameter of 35 mm, placed in an incubator at 37° C. and with 5% CO2, and passaged every 48 hours at a ratio of 1:5. The culture medium formula was: 90% F12 (Invitrogen), 10% fetal bovine serum (Gibco), 100 μg/mL G418 (Invitrogen), and 100 μg/mL Hygromycin B (Invitrogen). On the day of the test, the cell culture medium was sucked away, and the cells were washed with extracellular fluid once. Then 0.25% Trypsin-EDTA (Invitrogen) solution was added, and the cells was digested at room temperature for 3-5 min. The digestive fluid was sucked away, and the cells were resuspended with extracellular fluid, and transferred to the experimental dish for electrophysiological recording.
On the day of test, the compounds were prepared using DMSO into mother solution with concentration of 20 mM, and then serial dilution with DMSO was performed three times, i.e., 10 μL of the solution was added to 20 μL of DMSO, then 10 μL of the serial diluted solution of the compounds in DMSO was added to 4990 μL of extracellular fluid, and 500 times of dilution was performed to obtain the final concentration to be tested.
The hERG potassium channel currents of CHO (Chinese hamster ovary) cells stably expressing hERG potassium channels were recorded using whole-cell patch clamp technique at room temperature. The glass microelectrodes were made from glass electrode blanks (BF150-86-10, Sutter) by pulling through a puller, and the tip resistance was about 2-5 MΩ after filling the electrode with the inner liquid. The glass microelectrodes could be connected to a patch clamp amplifier by inserting them into the amplifier probe. Clamp voltage and data recording were controlled and recorded by a computer using software pClamp 10 with a sampling frequency of 10 kHz and a filtering frequency of 2 kHz. After obtaining a whole-cell recording, the cell was clamped at −80 mV, and the step voltage inducing hERG potassium current (IhERG) was given a depolarizing voltage from −80 mV to +20 mV for 2 s, and repolarized to −50 mV for 1 s, then returning to −80 mV. This voltage stimulus was given every 10 s. After it is determined that the potassium hERG current was stable (for 1 min), the dosing process was initiated. The compounds were administered for at least 1 min at each tested concentration, and at least 2 cells (n≥2) were tested at each concentration.
Data analysis and processing were conducted using softwares pClamp 10, GraphPad Prism 5, and Excel. The degree of inhibitory activity of different compound concentrations on hERG potassium current (peak value of hERG tail current induced at −50 mV) was calculated using the following formula: Inhibition %=[1−(I/Io)]×100%. Among them, Inhibition % represents the percentage inhibition of the compound on hERG potassium current, and I and Io represent the amplitude of hERG potassium current after and before dosing, respectively.
IC50 of the compounds was calculated using software GraphPad Prism 5 by fitting the following equation: Y=Bottom+(Top−Bottom)/(1+10^(Log IC50−X)*HillSlope). Among them, X is the Log value of the detection concentration of test material, Y is the inhibition percentage at the corresponding concentration, and Bottom and Top are the minimum and maximum inhibition percentages, respectively.

Assay [3] concerns the target T2, SHP-2 enzyme (Homo sapiens, UniProt Q06124).
T2 construct: Homogeneous Full Length SHP-2 Assay Kit (BPS Bioscience #79330); purchased BPS Bioscience 79330
T2 sequence (Q06124 1-593): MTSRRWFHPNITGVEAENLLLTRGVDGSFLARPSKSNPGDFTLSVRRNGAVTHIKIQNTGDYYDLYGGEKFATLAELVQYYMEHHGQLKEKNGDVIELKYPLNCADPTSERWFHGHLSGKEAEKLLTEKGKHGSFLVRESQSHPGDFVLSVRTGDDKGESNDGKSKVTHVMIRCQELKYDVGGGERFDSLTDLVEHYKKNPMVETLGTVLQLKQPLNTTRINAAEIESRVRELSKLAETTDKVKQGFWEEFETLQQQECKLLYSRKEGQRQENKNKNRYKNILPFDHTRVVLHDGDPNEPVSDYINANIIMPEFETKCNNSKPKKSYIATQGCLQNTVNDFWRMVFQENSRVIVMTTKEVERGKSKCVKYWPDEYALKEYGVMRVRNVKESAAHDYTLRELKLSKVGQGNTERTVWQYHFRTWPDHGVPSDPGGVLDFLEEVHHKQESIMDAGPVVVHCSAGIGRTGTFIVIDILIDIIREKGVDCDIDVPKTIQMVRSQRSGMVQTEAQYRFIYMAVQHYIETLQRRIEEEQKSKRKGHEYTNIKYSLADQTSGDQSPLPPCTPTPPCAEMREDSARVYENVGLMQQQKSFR
Briefly: Phosphatase activity assay (Homogeneous Full Length SHP-2 Assay Kit, DiFMUP substrate). It is filed as biochemical. The note with it: full length SHP-2 activated with 0.5 μM SHP-2 activating Peptide; 1 hour co-incubation; DiFMUP 50 μM, 30 min. The procedure, abridged:
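Full-length SHP-2 (0.04 ng/μL) was activated with 0.5 μM activating peptide in buffer with 2.5 mM DTT, co-incubated 1 h with compound (0.5 nM to 1 μM) or 0.1% DMSO. Reaction was started with 50 μM DiFMUP, and fluorescence (ex 350/em 460 nm) was read after 30 min to give IC50.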

The subject of assay [4] is human esophageal squamous carcinoma cell line KYSE-520. The assay is described as follows: KYSE-520 subcutaneous transplantation tumor model. It is filed as in vivo. The note with it: KYSE-520 subcutaneous tumor, female Balb/C nude mice, 10 mg/kg, PO, QD. How it is done: The human esophageal squamous carcinoma cell line KYSE-520 was cultured in RPMI 1640 containing 10% fetal bovine serum placed in a 37° C., 5% CO2 sterile incubator. The cells were passaged 2-3 times per week, digested with 0.25% trypsin-EDTA. After terminating the digestion with the above complete medium, the system was centrifugated at 1000 rpm for 5 min. The supernatant was discarded, and the cells were resuspended and passaged at a ratio of 1:3-1:5. Cells in logarithmic phase were collected, resuspended in serum-free RPMI 1640, counted and adjusted to the appropriate density.
KYSE-520 cells (3×10^6 cells/mouse) were inoculated into the right ventral dorsum of approximately 6- to 8-week-old female Balb/C nude mice. Then the tumors grew to an average volume of about 200 mm^3, the tumors were randomly grouped according to the tumor volume and body weight (n=8-10). Administration was started on the day of grouping and was performed once daily, defining the day of grouping as day 0. Tumor diameters were measured twice a week with vernier calipers, and tumor volume was calculated by the formula TV (mm^3)=0.5×a×b^2, with a and b representing the long and short diameters (in mm) of the tumors, respectively. When the average tumor volume of the control group was about 800 mm^3, the experiment was terminated. The tumor tissues were isolated and weighed to calculate the tumor weight proliferation rate with T/Cweight %=TWT/TWC %, and TWT and TWC represent the tumor weight of the administered group and the vehicle control group, respectively.

Structures are written as SMILES.

T1 sequence (Q12809 whole entry): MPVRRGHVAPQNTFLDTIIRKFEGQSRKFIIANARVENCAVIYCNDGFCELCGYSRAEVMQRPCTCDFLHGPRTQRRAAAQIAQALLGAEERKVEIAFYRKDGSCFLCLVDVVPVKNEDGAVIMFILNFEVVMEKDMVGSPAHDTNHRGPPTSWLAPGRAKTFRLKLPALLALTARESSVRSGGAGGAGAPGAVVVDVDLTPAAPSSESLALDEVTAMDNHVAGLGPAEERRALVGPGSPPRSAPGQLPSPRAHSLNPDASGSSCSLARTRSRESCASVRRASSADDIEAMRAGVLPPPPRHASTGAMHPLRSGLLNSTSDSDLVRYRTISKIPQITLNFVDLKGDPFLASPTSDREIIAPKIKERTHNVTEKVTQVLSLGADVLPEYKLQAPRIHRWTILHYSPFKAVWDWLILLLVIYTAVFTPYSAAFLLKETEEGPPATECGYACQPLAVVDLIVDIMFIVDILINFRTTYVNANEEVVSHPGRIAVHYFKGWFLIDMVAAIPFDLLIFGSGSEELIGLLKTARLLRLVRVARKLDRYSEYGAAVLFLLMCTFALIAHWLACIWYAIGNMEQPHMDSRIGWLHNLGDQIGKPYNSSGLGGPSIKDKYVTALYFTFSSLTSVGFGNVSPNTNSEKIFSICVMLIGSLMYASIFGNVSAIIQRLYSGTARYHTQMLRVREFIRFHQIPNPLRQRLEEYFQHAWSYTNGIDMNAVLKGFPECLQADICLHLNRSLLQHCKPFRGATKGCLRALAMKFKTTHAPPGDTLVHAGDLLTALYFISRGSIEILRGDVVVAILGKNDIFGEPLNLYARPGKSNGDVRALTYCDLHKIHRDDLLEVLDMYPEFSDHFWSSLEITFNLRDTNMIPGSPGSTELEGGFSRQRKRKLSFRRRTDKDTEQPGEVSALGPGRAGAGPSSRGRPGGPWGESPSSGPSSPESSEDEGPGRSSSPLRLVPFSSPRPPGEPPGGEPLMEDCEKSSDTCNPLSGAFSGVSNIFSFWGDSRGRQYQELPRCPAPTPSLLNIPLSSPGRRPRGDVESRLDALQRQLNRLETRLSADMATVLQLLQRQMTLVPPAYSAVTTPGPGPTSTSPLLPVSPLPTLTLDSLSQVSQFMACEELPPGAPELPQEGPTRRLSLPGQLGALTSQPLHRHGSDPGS

As for `Nc1nc2c(s1)CN(C(=O)c1ncc(N3CCC4(CC3)Cc3cc(F)ccc3C4N)nc1N)CC2(F)F` (stereo not shown) [Compound 114], the IC50 (commonly the concentration that gives 50% inhibition) in assay [1] was 7 nM; in assay [2], over 30000 nM; in assay [3] it was 7 nM. Besides, in assay [4], the “T/Cweight (tumor weight proliferation rate)” value is 39.69%.

The values are drawn from patent publication US20240025924A1, “HETEROCYCLE SUBSTITUTED KETONE DERIVATIVE, AND COMPOSITION AND MEDICINAL USE THEREOF” (SHANGHAI HAIYAN PHARMACEUTICAL TECHNOLOGY CO., LTD., priority 2021, published 2024).
